The source of these data is the OPERA property sets (Mansouri et al. 2018).

A word on the melting point: it is the temperature, or range, at which the solid turns liquid. Molecule `Nc1ccc(S(=O)(=O)Nc2ccccn2)cc1` had a melting point of 192 °C.
Usually boiling point stands for the temperature at which the vapour pressure of the liquid equals the pressure above it. In the case of `C=C1CC2CC1CC2(C)C` (stereo not drawn), the boiling point was determined as 152 °C.
Still for that read-out and setting: next, `CC(C)=CC=O`: 134 °C.
On to `CC(C)(C)OC=O`, for which the boiling point came out at 82.5 °C and the log10 Henry constant (atm·m³/mol) is -3.16.
`Nc1cccc2cc3ccccc3nc12` yielded a melting point of 108 °C.
Still for that read-out and setting: to `COC(=O)c1ccc(N)cc1` belongs 110 °C.
Take `CNc1ccc(Cl)cc1`: the boiling point was 240 °C.
As to `COC1=CC(=O)C[C@@H](C)[C@]12Oc1c(Cl)c(OC)cc(OC)c1C2=O`, the melting point came to 220 °C.
For the molecule `COC1=CC(=O)C=C(OC)C1=O`, the melting point came to 256 °C.
Same read-out and setting: to `ON=Cc1ccccc1O` belongs 57 °C.
The molecule `C=C[Si](C=C)(C=C)C=C` had a boiling point of 130 °C.
The molecule `Oc1ccc2ccc(O)cc2c1` returned a melting point of 193 °C.
The molecule `COc1ccc(CC(=O)O)cc1` had a melting point of 87 °C.
`CCCSc1ccccc1`: the boiling point is 220 °C and the melting point was -45 °C.
The corresponding values for `Cc1cc2c(cc1C)CCCC2` are 252 °C and 10 °C.
Molecule `NC(=O)Nc1ccc(Oc2ccccc2)cc1` gave a log10 Koc (L/kg) of 2.56.
In turn, `O=S(=O)(c1ccccc1)c1ccc(Cl)cc1` returned a melting point of 94 °C.
`O=C(O)Cc1cccnc1` displayed a melting point of 144 °C.
Consider `FC(F)(F)C1(F)C(F)(F)C(F)(F)C(F)(F)C(F)(F)C1(F)F`, for which the boiling point came out at 76.3 °C, the log10 vapour pressure (mmHg) was found to be 2.02 and the melting point was -44.7 °C.
For `O=S1CCCC1`, the boiling point worked out at 236 °C.
With `COc1cccc(OC)c1C`, the melting point worked out at 40 °C.
On to `CC(=O)Oc1ccccc1OC(C)=O`, for which the melting point was found to be 64.5 °C.
As for `c1ccc2c(c1)CCN2`, the boiling point is 229 °C.
Take `c1ccc2c(c1)Nc1ccccc1S2`: the boiling point was found to be 371 °C, the melting point was 188 °C and the ready biodegradability entry is given as “not readily biodegradable”.
Molecule `O=C(/C=C/c1cccc([N+](=O)[O-])c1)c1ccccc1` showed a melting point of 146 °C.
As for `Cc1cccc(C)c1N`, the boiling point amounted to 215 °C, the log10 vapour pressure (mmHg) was -0.886, the melting point worked out at 11.2 °C and the ready biodegradability entry was “not readily biodegradable”.
In turn, `O=C(O)CCCc1ccccc1` came in with a boiling point of 290 °C and a melting point of 52 °C.
`[N-]=[N+]=Nc1ccc(Cl)cc1` had a melting point of 20 °C.
In the case of `O=C(C=Cc1ccccc1)NCCO`, the melting point worked out at 101 °C.
Turning to `COC(=O)c1ccc(OC)c(OC)c1`, the boiling point was determined as 283 °C and the melting point came out at 60.8 °C.
In the case of `Clc1cccc(C(Cl)(Cl)Cl)n1`, the log10 Koc (L/kg) came out at 2.62, the log10 vapour pressure (mmHg) is -2.32 and the melting point worked out at 63 °C.
As for `NC(=O)c1ccc([N+](=O)[O-])cc1Cl`, the melting point is 172 °C and the ready biodegradability entry is reported as “readily biodegradable”.
`Cc1ccc(O)cc1N` yielded a melting point of 158 °C.
Same read-out and setting: to `O=C1NCNC1(c1ccccc1)c1ccccc1` belongs 183 °C.
For the molecule `CCOc1cccc(F)c1`, the boiling point was 172 °C and the melting point was -27.5 °C.
Turning to `CC1CCCC1C` (stereo not drawn), the log10 biodegradation half-life (days) amounted to 0.602 and the log10 vapour pressure (mmHg) turned out to be 1.67.
`[O-][n+]1cccc(O)c1` showed a melting point of 191 °C.
With `Cc1ccc2c(C)ccc(C(C)C)c2c1`, the boiling point was 294 °C.
Consider `Clc1ccc(Cl)s1`, for which the boiling point came out at 162 °C, the log10 vapour pressure (mmHg) is 0.934 and the melting point is -40.5 °C.
For `Cc1cccc(Br)c1` the same measures were 184 °C, 0.185 and -39.8 °C.
The corresponding values for `CC(C)CC(=O)CC(C)C` are 169 °C, 0.217 and -41.5 °C.
For the molecule `c1ccc2c(c1)-c1cccc3c1c-2cc1ccccc13`, the log10 Henry constant (atm·m³/mol) was -6.18, the log10 biodegradation half-life (days) was 2.45, the log10 vapour pressure (mmHg) is -6.3 and the melting point came to 168 °C.
In turn, `ClC1c2ccccc2CCc2ccccc21` showed a melting point of 106 °C.
On to `CC(=O)c1occc1O`, for which the melting point came to 100 °C.
Same read-out and setting: to `Nc1ccncn1` belongs 155 °C.
In the case of `CCCCC(=O)c1ccc(C)cc1`, the boiling point was found to be 256 °C and the melting point is -2 °C.
Take `C=CCOc1nc(OCC=C)nc(OCC=C)n1`: the melting point came to 27 °C.
With `CCC(C)N` (stereo not drawn), the boiling point stood at 62.8 °C, the log10 vapour pressure (mmHg) came out at 2.25, the melting point was -104 °C and the ready biodegradability entry is listed as “readily biodegradable”.
As to `OCc1ccc(CO)cc1`, the melting point amounted to 118 °C.
The molecule `Cc1cc([N+](=O)[O-])c(N)c([N+](=O)[O-])c1` gave a melting point of 172 °C.
Turning to `CC(=O)N(C)c1ccccc1`, the boiling point was 256 °C, the melting point is 103 °C and the ready biodegradability result was “not readily biodegradable”.
`O=c1ccc2ccc(O)c(O)c2o1` registered a melting point of 262 °C.
As for `CCN(CCO)c1ccc(N=Nc2ccc([N+](=O)[O-])cc2)cc1`, the log10 vapour pressure (mmHg) is -13.4 and the melting point is 161 °C.
On to `CC(=O)C=O`, for which the boiling point stood at 72 °C and the log10 Henry constant (atm·m³/mol) was -6.57.
